Test results from the NIST ThermoML archive (doi:10.1021/je200721d).

Experiment: xn = mol fraction of the nth substance listed
Settings: Liquid, Vibrating tube method

CCCCCCCCCC [decane] + CCCCCC
Settings	mass density [kg/m3]
313.18 K, 22000 kPa, x2 = 0.7524	687.87
313.18 K, 23000 kPa, x2 = 0.0456	730.42
313.18 K, 23000 kPa, x2 = 0.7524	688.65
313.18 K, 24000 kPa, x2 = 0.0456	731.08
313.18 K, 24000 kPa, x2 = 0.7524	689.4
313.18 K, 25000 kPa, x2 = 0.0456	731.73
313.18 K, 25000 kPa, x2 = 0.7524	690.14
313.21 K, 1000 kPa, x2 = 0.4968	688.23
313.21 K, 2000 kPa, x2 = 0.4968	689.24
313.21 K, 3000 kPa, x2 = 0.4968	690.26
313.21 K, 4000 kPa, x2 = 0.4968	691.19
313.21 K, 5000 kPa, x2 = 0.4968	692.15
313.21 K, 6000 kPa, x2 = 0.4968	693.12
313.21 K, 7000 kPa, x2 = 0.4968	694.03
313.21 K, 8000 kPa, x2 = 0.4968	694.95
313.21 K, 9000 kPa, x2 = 0.4968	695.84
313.21 K, 10000 kPa, x2 = 0.4968	696.74
313.21 K, 10990 kPa, x2 = 0.4968	697.6
313.21 K, 12000 kPa, x2 = 0.4968	698.47
313.21 K, 13000 kPa, x2 = 0.4968	699.32
313.21 K, 14000 kPa, x2 = 0.4968	700.16
313.21 K, 15000 kPa, x2 = 0.4968	700.95
313.21 K, 16000 kPa, x2 = 0.4968	701.76
313.21 K, 17000 kPa, x2 = 0.4968	702.55
313.21 K, 18000 kPa, x2 = 0.4968	703.34
313.21 K, 19000 kPa, x2 = 0.4968	704.08
313.21 K, 20000 kPa, x2 = 0.4968	704.83
313.21 K, 21000 kPa, x2 = 0.4968	705.58
313.21 K, 22000 kPa, x2 = 0.4968	706.34
313.21 K, 23000 kPa, x2 = 0.4968	707.05
313.21 K, 24000 kPa, x2 = 0.4968	707.76
313.21 K, 25000 kPa, x2 = 0.4968	708.45
322.99 K, 1000 kPa, x2 = 0.8991	645.29
322.99 K, 2000 kPa, x2 = 0.8991	646.4
322.99 K, 3000 kPa, x2 = 0.8991	647.52
322.99 K, 4000 kPa, x2 = 0.8991	648.64
322.99 K, 5000 kPa, x2 = 0.8991	649.64
322.99 K, 6000 kPa, x2 = 0.8991	650.89
322.99 K, 7000 kPa, x2 = 0.8991	652.02
322.99 K, 8000 kPa, x2 = 0.8991	653.14
322.99 K, 9000 kPa, x2 = 0.8991	654.27
322.99 K, 10000 kPa, x2 = 0.8991	655.38
322.99 K, 11000 kPa, x2 = 0.8991	656.46
322.99 K, 12000 kPa, x2 = 0.8991	657.57
322.99 K, 13000 kPa, x2 = 0.8991	658.64
322.99 K, 14000 kPa, x2 = 0.8991	659.7
322.99 K, 15000 kPa, x2 = 0.8991	660.74
322.99 K, 16000 kPa, x2 = 0.8991	661.75
322.99 K, 17000 kPa, x2 = 0.8991	662.76
322.99 K, 18000 kPa, x2 = 0.8991	663.71
322.99 K, 19000 kPa, x2 = 0.8991	664.67
322.99 K, 20000 kPa, x2 = 0.8991	665.59
322.99 K, 21000 kPa, x2 = 0.8991	666.49
322.99 K, 22000 kPa, x2 = 0.8991	667.35
322.99 K, 23000 kPa, x2 = 0.8991	668.19
322.99 K, 24000 kPa, x2 = 0.8991	669.02
322.99 K, 25000 kPa, x2 = 0.8991	669.89
323.14 K, 1000 kPa, x2 = 0.0456	705.56
323.14 K, 1000 kPa, x2 = 0.2185	697.1
323.14 K, 1000 kPa, x2 = 0.4968	679.98
323.14 K, 2000 kPa, x2 = 0.0456	706.52
323.14 K, 2000 kPa, x2 = 0.2185	698.02
323.14 K, 2000 kPa, x2 = 0.4968	681.03
323.14 K, 3000 kPa, x2 = 0.0456	707.47
323.14 K, 3000 kPa, x2 = 0.2185	698.97
323.14 K, 3000 kPa, x2 = 0.4968	682.14
323.14 K, 4000 kPa, x2 = 0.0456	708.4
323.14 K, 4000 kPa, x2 = 0.2185	699.88
323.14 K, 4000 kPa, x2 = 0.4968	683.21
323.14 K, 5000 kPa, x2 = 0.0456	709.32
323.14 K, 5000 kPa, x2 = 0.2185	700.82
323.14 K, 5000 kPa, x2 = 0.4968	684.24
323.14 K, 6000 kPa, x2 = 0.0456	710.22
323.14 K, 6000 kPa, x2 = 0.2185	701.75
323.14 K, 6000 kPa, x2 = 0.4968	685.27
323.14 K, 7000 kPa, x2 = 0.0456	711.11
323.14 K, 7000 kPa, x2 = 0.2185	702.67
323.14 K, 7000 kPa, x2 = 0.4968	686.28
323.14 K, 8000 kPa, x2 = 0.0456	711.99
323.14 K, 8000 kPa, x2 = 0.2185	703.58
323.14 K, 8000 kPa, x2 = 0.4968	687.29
323.14 K, 9000 kPa, x2 = 0.0456	712.86
323.14 K, 9000 kPa, x2 = 0.2185	704.45
323.14 K, 9000 kPa, x2 = 0.4968	688.27
323.14 K, 10000 kPa, x2 = 0.0456	713.72
323.14 K, 10000 kPa, x2 = 0.2185	705.32
323.14 K, 10000 kPa, x2 = 0.4968	689.22
323.14 K, 10990 kPa, x2 = 0.0456	714.56
323.14 K, 10990 kPa, x2 = 0.2185	706.19
323.14 K, 10990 kPa, x2 = 0.4968	690.14
323.14 K, 12000 kPa, x2 = 0.0456	715.39
323.14 K, 12000 kPa, x2 = 0.2185	707.05
323.14 K, 12000 kPa, x2 = 0.4968	691.07
323.14 K, 13000 kPa, x2 = 0.0456	716.21
